Reference: patent US6410576B1, “Thiazolidine derivatives” (Santen Pharmaceutical Co., Ltd., priority 1998, dated 2002)
Structures can show the parent of a compound that is named as a salt.

Target: T1, chymase extracted from a dog cardiac tissue (Canis lupus familiaris, UniProt P21842)
T1 construct: a heart is enucleated, and left ventricle is separated; from tissue; host or cells: beagle heart, left ventricle
T1 sequence (P21842 22-249): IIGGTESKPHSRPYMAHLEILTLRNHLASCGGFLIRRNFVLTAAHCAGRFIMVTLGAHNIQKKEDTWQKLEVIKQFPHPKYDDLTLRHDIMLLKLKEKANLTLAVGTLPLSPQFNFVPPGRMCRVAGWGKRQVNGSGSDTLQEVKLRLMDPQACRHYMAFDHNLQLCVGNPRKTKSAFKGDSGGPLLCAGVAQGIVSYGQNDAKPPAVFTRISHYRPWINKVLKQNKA
Assay: Chymase inhibitory effect (liberation of His-Leu from angiotensin I, fluorescence intensity)
Assay type: biochemical
Conditions: angiotensin I substrate, 37° C. for one hour, pH 8 reaction buffer; read-out: IC50 (concentration required to inhibit the chymase enzymatic activity by 50%)
Description: Chymase (enzyme) causes angiotensin I (substrate) to liberate a dipeptide (His-Leu) by the enzyme reaction with the substrate. It was reported that an enzymatic activity of chymase can be measured by measuring fluorescence intensity of the resulting peptide (Biochem. Biophys. Res. Com., 149 (3) 1186 (1987)). Since drugs having chymase inhibitory activities suppress this liberation of the dipeptide, the chymase inhibitory activities of the drugs can be measured by measuring fluorescence intensity. In the present pharmacological test, chymase inhibitory effects of the present compounds were studied by using chymase extracted from a dog cardiac tissue (J. Biol. Chem., 265 (36), 22348 (1990)).
1. A beagle is killed by drawing blood under Nembutal anesthesia, a heart is enucleated, and left ventricle is separated.
2. This left ventricle is finely minced, and the tissue weight is measured.
3. A 0.02 M Tris-HCl buffer (pH 7.4) is added to the tissue in an amount of 10 times by volume the tissue weight. This mixture is homogenized at 8,000 rpm for 20 seconds and then centrifuged at 4° C. and 21,000 rpm for 30 minutes, and the resulting supernatant is discarded.
(§1) 4. The same procedure as the above 3 is repeated twice for the residue. Then, a 0.02 M Tris-HCl buffer (pH 7.4) containing 1% Triton X-100 and 0.01 M potassium chloride is added to the residue in an amount of 10 times by volume the amount of the residue. This mixture is homogenized at 8,000 rpm for 20 seconds, then incubated at 4° C. for one hour and centrifuged at 21,000 rpm for 30 minutes, and the supernatant is discarded.
as §1, with “5. A” for “4. The same procedure as the above 3 is repeated twice for the residue. Then, a”, “0.5” for “0.01”
6. A 0.02 M Tris-HCl buffer (pH 7.4) containing 1% Triton X-100 and 2.0 M potassium chloride is added to the residue in an amount of 10 times the amount of the residue. This mixture is homogenized at 8,000 rpm for 20 seconds, then incubated at 4° C. for one hour and centrifuged at 21,000 rpm for 30 minutes. The obtained supernatant is used as a chymase enzyme solution.
Tris-HCl and disodium ethylenediaminetetraacetate are dissolved in water so that their concentrations are 92.3 mM and 12.0 mM respectively to prepare a reaction buffer adjusted to pH 8.
Angiotensin I is dissolved in water to prepare a 1.54 mM substrate solution.
A test compound is dissolved in dimethyl sulfoxide to prepare 3.0×10^−3 M, 3.0×10^−4 M, 3.0×10^−5 M and 3.0×10^−6 M test com solutions.
1. The reaction buffer (32.5 μl), the substrate solution (75.0 μl), the chymase enzyme solution (37.5 μl) and the test compound solution (5 μl) are mixed.
2. The obtained mixture is incubated at 37° C. for one hour.
3. To the mixture is added 15% trichloroacetic acid (225 μl), and the whole is centrifuged at 4° C. and 14,000 rpm for five minutes.
4. The supernatant is taken out. A 1% orthophthalaldehyde/methanol solution (165 μl) is added to 300 μl of this supernatant, and the whole is stirred and allowed to stand at room temperature for 10 minutes.
5. 1.5 M Hydrochloric acid (300 μl) is added to the resulting mixture, and the whole is stirred and centrifuged at 4° C. and 14,000 rpm for two minutes.
6. The supernatant is taken out and irradiated with light having a wavelength of 340 nm, and fluorescence intensity is measured at a wavelength of 455 nm.
The blank of this test is defined as follows. The same procedures as in the above 1 to 6 are repeated provided that a 20 mM Tris-HCl buffer (pH 7.4, 37.5 μl) containing 1% Triton X-100 and 2.0 M potassium chloride is used instead of the chymase enzyme solution (37.5 μl), and dimethyl sulfoxide (5 μl) is used instead of the test compound solution (5 μl) in the above 1. The obtained […] is the blank value. […]

SMILES | IC50 [nM]
CC(C)OC(=O)C(=O)[C@H](Cc1ccccc1)NC(=O)[C@@H]1CSC(c2ccccc2)N1C(=O)[C@@H](NC(=O)N(C)CCN)C(C)C (mixture of isomers) [Compound No. 6-2, Isopropyl (3S)-3-[(2RS,4R)-3-[(2S)-2-[[N-(2-aminoethyl)-N-methylamino]carbonyl]amino]-3-methyl-1-oxobutyl]-2-phenyl-1,3-thiazolidin-4-ylcarboxamidol-2-oxo-4-phenylbutyrate hydrochloride] | 57
CC(C)OC(=O)C(=O)[C@H](Cc1ccccc1)NC(=O)[C@@H]1CSCN1C(=O)[C@@H](NC(=O)OCc1ccccc1)C(C)C [Compound No. 2-1, Isopropyl (3S)-3-[(4R)-3-[(2S)-3-methyl-1-oxo-2-[[(phenylmethoxy)carbonyl]amino]butyl]-1,3-thiazolidin-4-ylcarboxamido]-2-oxo-4-phenylbutyrate] | 47
CC(C)OC(=O)C(=O)[C@H](Cc1ccccc1)NC(=O)[C@@H]1CSCN1C(=O)[C@@H](NC(=O)OC(C)(C)C)C(C)C [Compound No. 2-21, Isopropyl (3S)-3-[(4R)-3-[(2S)-2-(tert-butoxycarbonyl)amino-3-methyl-1-oxobutyl]-1,3-thiazolidin-4-ylcarboxamido]-2-oxo-4-phenylbutyrate] | 26
CC(C)OC(=O)C(=O)[C@H](Cc1ccccc1)NC(=O)[C@@H]1CSCN1C(=O)[C@@H](NC(=O)N(C)CCNC(=O)OC(C)(C)C)C(C)C [Compound No. 2-26, Isopropyl (3S)-3-[(4R)-3-[(2S)-2-[[N-[2-[(tert-butoxycarbonyl)amino]ethyl]-N-methylamino]carbonyl]amino-3-methyl-1-oxobutyl]-1,3-thiazolidin-4-ylcarboxamido]-2-oxo-4-phenylbutyrate] | 12
CC(C)[C@H](NC(=O)OCc1ccccc1)C(=O)N1CSC[C@H]1C(=O)N[C@@H](Cc1ccccc1)C(=O)C(=O)OCc1ccccc1 [Compound No. 2-37, Phenylmethyl (3S)-3-[(4R)-3-[(2S)-3-methyl-1-oxo-2-[[(phenylmethoxy)carbonyl]amino]butyl]-1,3-thiazolidin-4-ylcarboxamido]-2-oxo-4-phenylbutyrate] | 66

More lines, now with the values ahead:

IC50 [nM] | SMILES
56 | COCC(=O)N[C@H](C(=O)N1CSC[C@H]1C(=O)N[C@@H](Cc1ccccc1)C(=O)C(=O)OC(C)C)C(C)C [Compound No. 2-19, Isopropyl (3S)-3-[(4R)-3-[(2S)-2-[(methoxymethyl)carbonyl]amino-3-methyl-1-oxobutyl]-1,3-thiazolidin-4-ylcarboxamido]-2-oxo-4-phenylbutyrate]
44 | CC(C)OC(=O)C(=O)[C@H](Cc1ccccc1)NC(=O)[C@@H]1CSCN1C(=O)[C@@H](NC(=O)COc1ccccc1)C(C)C [Compound No. 2-20, Isopropyl (3S)-3-[(4R)-3-[(2S)-3-methyl-1-oxo-2-[[(phenoxylmethyl)carbonyl]amino]butyl]-1,3-thiazolidin-4-ylcarboxamido]-2-oxo-4-phenylbutyrate]
31 | CC(C)OC(=O)C(=O)[C@H](Cc1ccccc1)NC(=O)[C@@H]1CSCN1C(=O)[C@@H](NC(=O)N(C)Cc1ccccc1)C(C)C [Compound No. 2-25, Isopropyl (3S)-3-[(4R)-3-[(2S)-3-methyl-2-[[N-methyl-N-(phenylmethyl)amino]carbonyl]amino-1-oxobutyl]-1,3-thiazolidin-4-ylcarboxamido]-2-oxo-4-phenylbutyrate]

System: not given
Assay: not given
Conditions: not given

melting point [°C] | SMILES
90 | CC(C)OC(=O)C(=O)[C@H](Cc1ccccc1)NC(=O)[C@@H]1CSC(c2ccccc2)N1C(=O)[C@@H](NC(=O)N(C)CCN)C(C)C (mixture of isomers) (as salt: hydrochloride) [Compound No. 6-2, Isopropyl (3S)-3-[(2RS,4R)-3-[(2S)-2-[[N-(2-aminoethyl)-N-methylamino]carbonyl]amino]-3-methyl-1-oxobutyl]-2-phenyl-1,3-thiazolidin-4-ylcarboxamidol-2-oxo-4-phenylbutyrate hydrochloride]
